Assay [1] addresses T1, Glycine receptor subunit alpha-1 (Homo sapiens, UniProt P23415).
T1 sequence (P23415 whole entry): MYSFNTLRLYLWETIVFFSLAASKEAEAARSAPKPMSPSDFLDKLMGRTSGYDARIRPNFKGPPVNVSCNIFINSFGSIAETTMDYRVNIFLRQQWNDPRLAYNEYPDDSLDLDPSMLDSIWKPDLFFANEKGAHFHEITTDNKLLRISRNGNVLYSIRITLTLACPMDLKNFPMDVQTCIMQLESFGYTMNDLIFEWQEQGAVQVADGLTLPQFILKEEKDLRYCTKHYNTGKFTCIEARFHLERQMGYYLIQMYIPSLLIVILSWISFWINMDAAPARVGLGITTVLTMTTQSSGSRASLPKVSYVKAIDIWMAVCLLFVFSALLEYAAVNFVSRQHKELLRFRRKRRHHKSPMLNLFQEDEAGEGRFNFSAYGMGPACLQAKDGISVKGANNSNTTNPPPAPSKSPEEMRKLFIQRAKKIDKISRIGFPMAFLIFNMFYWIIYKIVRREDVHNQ
As to the kind of experiment: Antagonist activity at human glycine receptor subunit alpha-1 expressed in HEK293 cells assessed as reduction in glycine-induced currents by whole-cell patch-clamp assay. In kind it is cell-based. Background: In patch-clamp work, channel activity is measured electrically.

The target in assay [2] is T1, Glycine receptor subunit alpha-1. As to the kind of experiment: Antagonist activity at human glycine receptor subunit alpha-1 expressed in human tsA201 cells assessed as reduction in glycine-induced response incubated for 30 mins by fluorescence-based FLIPR membrane potential blue assay. In kind it is cell-based.
Assay [3] concerns the target Glycine receptor (alpha-1/beta) (Homo sapiens, UniProt P23415+P48167). The assay is described as follows: Antagonist activity at human glycine receptor subunit alpha-1beta expressed in human tsA201 cells assessed as reduction in glycine-induced response incubated for 30 mins by fluorescence-based FLIPR membrane potential blue assay. In kind it is cell-based. To be noted: for pIC50: tsa201.

In assay [4] the target is T1, Glycine receptor subunit alpha-1. The assay is described as follows: Displacement of [3H]strychnine from human glycine receptor subunit alpha-1 expressed in HEK293 cell membranes preincubated for 30 mins followed by [3H]strychnine addition and measured after 30 mins by liquid scintillation counting method. Also on record: species or system Membrane. A general note: Loss of bound radioactivity is the signal in a displacement assay; it reports binding, not function.

For assay [5] the target is unchanged. The assay is described as follows: Antagonist activity at human glycine receptor subunit alpha-1 assessed as inhibition of glycine-induced current measured at the later state of compound application by patch-clamp assay.
For assay [6] the target is unchanged. As to the kind of experiment: Antagonist activity at human glycine receptor subunit alpha-1 assessed as inhibition of glycine-induced current measured at the onset of compound application by patch-clamp assay.

Where only a bound is given, the exact number is not on record here.

Sequence of Glycine receptor (alpha-1/beta) (P48167 whole entry, one chain of several): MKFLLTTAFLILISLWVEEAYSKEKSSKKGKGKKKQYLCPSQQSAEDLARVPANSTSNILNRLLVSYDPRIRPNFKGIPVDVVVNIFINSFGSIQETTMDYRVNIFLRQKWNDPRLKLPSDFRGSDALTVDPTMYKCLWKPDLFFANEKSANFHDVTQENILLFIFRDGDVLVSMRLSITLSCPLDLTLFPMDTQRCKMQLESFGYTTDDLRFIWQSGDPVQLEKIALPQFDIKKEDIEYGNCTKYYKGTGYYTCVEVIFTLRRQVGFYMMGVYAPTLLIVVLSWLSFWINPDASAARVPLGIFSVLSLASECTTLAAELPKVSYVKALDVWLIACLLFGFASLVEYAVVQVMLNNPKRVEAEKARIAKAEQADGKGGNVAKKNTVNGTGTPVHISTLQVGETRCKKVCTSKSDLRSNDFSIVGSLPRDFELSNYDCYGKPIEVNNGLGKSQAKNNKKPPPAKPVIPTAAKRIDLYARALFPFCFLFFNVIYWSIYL

Take `O=C(CCCCCCCC(=O)NCC(=O)Nc1ccc2c(c1)[C@@]13CCN4CC5=CCO[C@H]6CC(=O)N2[C@H]1[C@H]6[C@H]5C[C@H]43)NCC(=O)Nc1ccc2c(c1)[C@@]13CCN4CC5=CCO[C@H]6CC(=O)N2[C@H]1[C@H]6[C@H]5C[C@H]43`: the results for the IC50 in assay [1], in assay [2] (read-out: IC50) and in assay [3] (read-out: IC50) were 400 nM, 2100 nM and 1700 nM, respectively.

For the compound `CCCCCCCC(=O)NCC(=O)Nc1ccc2c(c1)[C@@]13CCN4CC5=CCO[C@H]6CC(=O)N2[C@H]1[C@H]6[C@H]5C[C@H]43`, the IC50 was determined as 90 nM in assay [1], 780 nM in assay [2] (read-out: IC50) and 510 nM in assay [3] (read-out: IC50).

With `CCCCCCCC(=O)NCCCCCCCCCCC(=O)Nc1ccc2c(c1)[C@@]13CCN4CC5=CCO[C@H]6CC(=O)N2[C@H]1[C@H]6[C@H]5C[C@H]43`, the IC50 turned out to be 1700 nM in assay [1], 10000 nM in assay [2] (read-out: IC50) and 5800 nM in assay [3] (read-out: IC50).

Regarding `O=C(CCCCCCC(=O)NCC(=O)Nc1ccc2c(c1)[C@@]13CCN4CC5=CCO[C@H]6CC(=O)N2[C@H]1[C@H]6[C@H]5C[C@H]43)NCC(=O)Nc1ccc2c(c1)[C@@]13CCN4CC5=CCO[C@H]6CC(=O)N2[C@H]1[C@H]6[C@H]5C[C@H]43`, the IC50 was 170 nM in assay [1], 2800 nM in assay [2] (read-out: IC50) and 2400 nM in assay [3] (read-out: IC50).

As for `O=C(CCCCCCCCCCCCCCC(=O)NCCCCC(=O)Nc1ccc2c(c1)[C@@]13CCN4CC5=CCO[C@H]6CC(=O)N2[C@H]1[C@H]6[C@H]5C[C@H]43)NCCCCC(=O)Nc1ccc2c(c1)[C@@]13CCN4CC5=CCO[C@H]6CC(=O)N2[C@H]1[C@H]6[C@H]5C[C@H]43`, the IC50 in assay [2] (read-out: IC50) is 7900 nM; in assay [3] (read-out: IC50), 4100 nM.

With `O=C(CCCCCC(=O)NCC(=O)Nc1ccc2c(c1)[C@@]13CCN4CC5=CCO[C@H]6CC(=O)N2[C@H]1[C@H]6[C@H]5C[C@H]43)NCC(=O)Nc1ccc2c(c1)[C@@]13CCN4CC5=CCO[C@H]6CC(=O)N2[C@H]1[C@H]6[C@H]5C[C@H]43`, the IC50 in assay [1] is 130 nM; in assay [2] (read-out: IC50), 2800 nM; in assay [2] (read-out: pIC50 (converted)) it was 2690 nM; in assay [3] (read-out: IC50), 2200 nM.

As for `O=C(CCCCCCCCCCCCCCCCCCCCC(=O)NCCCCCCCCCCC(=O)Nc1ccc2c(c1)[C@@]13CCN4CC5=CCO[C@H]6CC(=O)N2[C@H]1[C@H]6[C@H]5C[C@H]43)NCCCCCCCCCCC(=O)Nc1ccc2c(c1)[C@@]13CCN4CC5=CCO[C@H]6CC(=O)N2[C@H]1[C@H]6[C@H]5C[C@H]43`, the IC50 in assay [1] is 2900 nM; in assay [2] (read-out: IC50), above 10000 nM; in assay [3] (read-out: IC50) it was above 10000 nM. Also, the pIC50 in assay [2] (tsa201) and in assay [3] was below 5 each time.

In the case of `O=C(CCCCCCCCCCCCCCC(=O)NCCCCCCCCCCC(=O)Nc1ccc2c(c1)[C@@]13CCN4CC5=CCO[C@H]6CC(=O)N2[C@H]1[C@H]6[C@H]5C[C@H]43)NCCCCCCCCCCC(=O)Nc1ccc2c(c1)[C@@]13CCN4CC5=CCO[C@H]6CC(=O)N2[C@H]1[C@H]6[C@H]5C[C@H]43`, the IC50 is 10000 nM in assay [2] (read-out: IC50) and above 10000 nM in assay [3] (read-out: IC50). Further, the pIC50 in assay [3] is below 5.

Consider `COCCOCCOCCOCCOCCOCCOCCOCCOCCOCCOCCOCCC(=O)NCCCCCCCCCCC(=O)Nc1ccc2c(c1)[C@@]13CCN4CC5=CCO[C@H]6CC(=O)N2[C@H]1[C@H]6[C@H]5C[C@H]43`, for which the inhibition constant Ki in assay [4] is 977 nM. Also, the IC50 in assay [5] was 158 nM; in assay [2] (read-out: IC50), 20000 nM; in assay [3] (read-out: IC50) it was 10000 nM; in assay [6], 5720 nM.

As for `O=C(CCCCCCCCCCCCC(=O)NCC(=O)Nc1ccc2c(c1)[C@@]13CCN4CC5=CCO[C@H]6CC(=O)N2[C@H]1[C@H]6[C@H]5C[C@H]43)NCC(=O)Nc1ccc2c(c1)[C@@]13CCN4CC5=CCO[C@H]6CC(=O)N2[C@H]1[C@H]6[C@H]5C[C@H]43`, the values for the IC50 in assay [2] (read-out: IC50) and in assay [3] (read-out: IC50) were 1700 nM and 2000 nM, respectively.

`O=C(CCOCCOCCOCCOCCOCCOCCOCCOCCOCCOCCOCCOCCC(=O)NCCCCC(=O)Nc1ccc2c(c1)[C@@]13CCN4CC5=CCO[C@H]6CC(=O)N2[C@H]1[C@H]6[C@H]5C[C@H]43)NCCCCC(=O)Nc1ccc2c(c1)[C@@]13CCN4CC5=CCO[C@H]6CC(=O)N2[C@H]1[C@H]6[C@H]5C[C@H]43` displayed a Ki in assay [4] of 81 nM. Further, the IC50 in assay [5] was determined as 55 nM; in assay [2] (read-out: IC50) it was 4300 nM; in assay [3] (read-out: IC50), 1800 nM; in assay [6], 1340 nM.

As for `O=C(CCC(=O)Nc1ccc2c(c1)[C@@]13CCN4CC5=CCO[C@H]6CC(=O)N2[C@H]1[C@H]6[C@H]5C[C@H]43)Nc1ccc2c(c1)[C@@]13CCN4CC5=CCO[C@H]6CC(=O)N2[C@H]1[C@H]6[C@H]5C[C@H]43`, the IC50 in assay [2] (read-out: IC50) and in assay [3] (read-out: IC50) was 10000 nM each time.

As for `O=C(CCCCCCCCCCCCC(=O)Nc1ccc2c(c1)[C@@]13CCN4CC5=CCO[C@H]6CC(=O)N2[C@H]1[C@H]6[C@H]5C[C@H]43)Nc1ccc2c(c1)[C@@]13CCN4CC5=CCO[C@H]6CC(=O)N2[C@H]1[C@H]6[C@H]5C[C@H]43`, the IC50 in assay [2] (read-out: IC50) stood at 430 nM; in assay [3] (read-out: IC50), 210 nM.

Consider `O=C(CCCCCCCCCCCCCCC(=O)NCC(=O)Nc1ccc2c(c1)[C@@]13CCN4CC5=CCO[C@H]6CC(=O)N2[C@H]1[C@H]6[C@H]5C[C@H]43)NCC(=O)Nc1ccc2c(c1)[C@@]13CCN4CC5=CCO[C@H]6CC(=O)N2[C@H]1[C@H]6[C@H]5C[C@H]43`, for which the IC50 in assay [2] (read-out: IC50) turned out to be 3200 nM; in assay [3] (read-out: IC50), 2200 nM.

For the compound `O=C(CCCCCCCCCCC(=O)NCC(=O)Nc1ccc2c(c1)[C@@]13CCN4CC5=CCO[C@H]6CC(=O)N2[C@H]1[C@H]6[C@H]5C[C@H]43)NCC(=O)Nc1ccc2c(c1)[C@@]13CCN4CC5=CCO[C@H]6CC(=O)N2[C@H]1[C@H]6[C@H]5C[C@H]43`, the values for the IC50 in assay [1], in assay [2] (read-out: IC50) and in assay [3] (read-out: IC50) were 100 nM, 2700 nM and 1900 nM, respectively.

Regarding `CCCCCCCC(=O)Nc1ccc2c(c1)[C@@]13CCN4CC5=CCO[C@H]6CC(=O)N2[C@H]1[C@H]6[C@H]5C[C@H]43`, the IC50 in assay [2] (read-out: IC50) turned out to be 1200 nM; in assay [3] (read-out: IC50), 680 nM.

Take `O=C(CCCCCCCCC(=O)NCC(=O)Nc1ccc2c(c1)[C@@]13CCN4CC5=CCO[C@H]6CC(=O)N2[C@H]1[C@H]6[C@H]5C[C@H]43)NCC(=O)Nc1ccc2c(c1)[C@@]13CCN4CC5=CCO[C@H]6CC(=O)N2[C@H]1[C@H]6[C@H]5C[C@H]43`: the IC50 in assay [2] (read-out: IC50) stood at 730 nM; in assay [3] (read-out: IC50), 880 nM.

Turning to `O=C(CCCCC(=O)Nc1ccc2c(c1)[C@@]13CCN4CC5=CCO[C@H]6CC(=O)N2[C@H]1[C@H]6[C@H]5C[C@H]43)Nc1ccc2c(c1)[C@@]13CCN4CC5=CCO[C@H]6CC(=O)N2[C@H]1[C@H]6[C@H]5C[C@H]43`, the IC50 in assay [2] (read-out: IC50) stood at 6100 nM; in assay [3] (read-out: IC50), 10000 nM.

Take `O=C(CCCC(=O)Nc1ccc2c(c1)[C@@]13CCN4CC5=CCO[C@H]6CC(=O)N2[C@H]1[C@H]6[C@H]5C[C@H]43)Nc1ccc2c(c1)[C@@]13CCN4CC5=CCO[C@H]6CC(=O)N2[C@H]1[C@H]6[C@H]5C[C@H]43`: the figures for the IC50 in assay [2] (read-out: IC50) and in assay [3] (read-out: IC50) were 10000 nM and 30000 nM, respectively.

Take `O=C(CCCCCCC(=O)NCCCCCCCCCCC(=O)Nc1ccc2c(c1)[C@@]13CCN4CC5=CCO[C@H]6CC(=O)N2[C@H]1[C@H]6[C@H]5C[C@H]43)NCCCCCCCCCCC(=O)Nc1ccc2c(c1)[C@@]13CCN4CC5=CCO[C@H]6CC(=O)N2[C@H]1[C@H]6[C@H]5C[C@H]43`: the IC50 in assay [1] is 1400 nM; in assay [2] (read-out: IC50), 30000 nM; in assay [3] (read-out: IC50) it was 20000 nM; in assay [3] (read-out: pIC50 (converted)) it was 50100 nM.

In assay [4], `COCCOCCOCCOCCOCCOCCOCCOCCOCCOCCOCCOCCC(=O)NCCCCC(=O)Nc1ccc2c(c1)[C@@]13CCN4CC5=CCO[C@H]6CC(=O)N2[C@H]1[C@H]6[C@H]5C[C@H]43` came in with a Ki of 436 nM. The IC50 was determined as 137 nM in assay [5], 15000 nM in assay [2] (read-out: IC50), 10000 nM in assay [3] (read-out: IC50) and 852 nM in assay [6].

Turning to `O=C(CCCCCCCCCCC(=O)NCCCCCCCCCCC(=O)Nc1ccc2c(c1)[C@@]13CCN4CC5=CCO[C@H]6CC(=O)N2[C@H]1[C@H]6[C@H]5C[C@H]43)NCCCCCCCCCCC(=O)Nc1ccc2c(c1)[C@@]13CCN4CC5=CCO[C@H]6CC(=O)N2[C@H]1[C@H]6[C@H]5C[C@H]43`, the IC50 in assay [1] is 3100 nM; in assay [2] (read-out: IC50), 30000 nM; in assay [3] (read-out: IC50) it was 50000 nM; in assay [3] (read-out: pIC50 (converted)) it was 31600 nM.

As a reminder, the pIC50 is −log10 of the IC50, conventionally taken in molar units. For orientation: Ki means a dissociation constant, usually derived from enzyme kinetics or from competition with a known ligand.

These data come from ChEMBL document CHEMBL4819035, “C-2-Linked Dimeric Strychnine Analogues as Bivalent Ligands Targeting Glycine Receptors” (J Nat Prod, 2021).
